Assay results as given in ChEMBL document CHEMBL1148935, “Mechanism-based inactivation of COX-1 by red wine m-hydroquinones: a structure-activity relationship study” (J Nat Prod, 2004).
Values belong to the compound of their own block, whether it stands above or below them. Calls of active or inactive are those of the source. The rule behind the calls is not given here.

Columns and labels:
[1] = molecular target: T1, Prostaglandin G/H synthase 1 (Ovis aries) (UniProt P05979); test: Inactivation of holo-COX1 in sheep seminal vesicle assessed as drug oxidization at 2.5 to 4 nmol by RP-HPLC in presence of hydrogen peroxide
T1 sequence (whole entry): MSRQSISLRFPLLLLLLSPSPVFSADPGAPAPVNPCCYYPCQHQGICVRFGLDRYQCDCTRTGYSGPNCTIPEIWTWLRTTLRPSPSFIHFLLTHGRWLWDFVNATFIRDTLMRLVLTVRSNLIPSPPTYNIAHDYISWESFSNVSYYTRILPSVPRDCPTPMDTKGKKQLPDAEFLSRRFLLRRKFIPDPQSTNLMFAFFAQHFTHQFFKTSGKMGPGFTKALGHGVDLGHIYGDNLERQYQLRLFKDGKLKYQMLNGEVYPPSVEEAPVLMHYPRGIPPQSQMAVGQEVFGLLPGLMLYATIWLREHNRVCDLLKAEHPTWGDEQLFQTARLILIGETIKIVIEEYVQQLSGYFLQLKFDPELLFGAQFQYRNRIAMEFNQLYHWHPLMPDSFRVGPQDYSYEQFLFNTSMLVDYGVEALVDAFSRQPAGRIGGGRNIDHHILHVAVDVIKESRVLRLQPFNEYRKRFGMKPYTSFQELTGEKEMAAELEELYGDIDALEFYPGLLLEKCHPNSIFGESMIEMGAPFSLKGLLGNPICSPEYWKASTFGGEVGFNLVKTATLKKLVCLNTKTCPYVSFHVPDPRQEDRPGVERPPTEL

[2] = molecular target: T2, Prostaglandin G/H synthase 2 (Homo sapiens) (UniProt P35354); test: Inhibition of human COX2 expressed in baculovirus infected Sf-21 insect cells
T2 sequence (whole entry): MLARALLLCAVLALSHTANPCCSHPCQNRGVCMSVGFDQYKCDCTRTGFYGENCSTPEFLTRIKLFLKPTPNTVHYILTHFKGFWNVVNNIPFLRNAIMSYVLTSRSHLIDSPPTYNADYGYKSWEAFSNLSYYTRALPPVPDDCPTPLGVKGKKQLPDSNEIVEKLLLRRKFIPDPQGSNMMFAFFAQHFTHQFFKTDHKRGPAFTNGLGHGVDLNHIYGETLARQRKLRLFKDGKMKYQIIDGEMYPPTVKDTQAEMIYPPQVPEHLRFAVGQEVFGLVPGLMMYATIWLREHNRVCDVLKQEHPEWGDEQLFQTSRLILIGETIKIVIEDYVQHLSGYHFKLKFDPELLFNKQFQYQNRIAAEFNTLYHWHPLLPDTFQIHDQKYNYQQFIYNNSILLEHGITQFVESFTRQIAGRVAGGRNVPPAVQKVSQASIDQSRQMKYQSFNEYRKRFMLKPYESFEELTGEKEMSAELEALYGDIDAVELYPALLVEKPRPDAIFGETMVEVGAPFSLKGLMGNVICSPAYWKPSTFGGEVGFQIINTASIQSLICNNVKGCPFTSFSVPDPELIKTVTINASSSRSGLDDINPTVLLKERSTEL

[3] = molecular target: T3, Prostaglandin G/H synthase 1 (Ovis aries, UniProt P05979); test: Inhibition of peroxidase activity of COX1 in heep seminal vesicle by TMPD assay; assay type: tissue-based
T3 sequence (P05979 whole entry): T1 sequence (whole entry)

[4] = molecular target: T3, Prostaglandin G/H synthase 1; test: Binding affinity to COX1 in sheep seminal vesicle
[5] = molecular target: T1, Prostaglandin G/H synthase 1 (Ovis aries); test: Effect on COX1 activity in sheep seminal vesicle at 5 uM by TMPD peroxidase assay; assay type: tissue-based
[6] = molecular target: T3, Prostaglandin G/H synthase 1; test: Inhibition of cyclooxygenase activity of COX1 in sheep seminal vesicle in presence of 1 mM phenol by cyclooxygenase assay; assay type: tissue-based

Structure (SMILES): Oc1ccc(/C=C/c2cc(O)cc(O)c2)cc1 [RESVERATROL]
IC50 [3]: 2.8 µM
Kd [4]: 11.7 µM
Activity [5]: inactive
IC50 [6]: 67.3 µM

Structure (SMILES): Oc1cc(O)c2c(c1)O[C@H](c1ccc(O)c(O)c1)[C@@H](O)C2 [CIANIDANOL]
Activity [1]: 7%
Activity [2]: inactive
IC50 [3]: 4.1 µM
Kd [4]: 40.7 µM
Activity [5]: inactive
IC50 [6]: 20.2 µM

Structure (SMILES): Oc1cccc(O)c1 [RESORCINOL]
Activity [1]: 5%
IC50 [3]: 3.6 µM
Kd [4]: 86.9 µM
Activity [5]: inactive
IC50 [6]: 30.8 µM

Second part, the compound after the results:

Activity [1]: 5%
Activity [2]: inactive
IC50 [3]: 2 µM
Kd [4]: 25.9 µM
Activity [5]: inactive
IC50 [6]: 12.2 µM
Structure (SMILES): Oc1cc(O)c2c(c1)O[C@H](c1ccc(O)c(O)c1)[C@H](O)C2 [(-)-EPICATECHIN]

Activity [1]: 5%
Activity [2]: inactive
IC50 [3]: 2.5 µM
Kd [4]: 25.1 µM
Activity [5]: inactive
IC50 [6]: 12.8 µM
Structure (SMILES): Oc1cc(O)c2c(c1)O[C@@H](c1ccc(O)c(O)c1)[C@@H](O)C2 [(+)-EPICATECHIN]

Activity [1]: 8%
Activity [2]: inactive
IC50 [3]: 5.3 µM
Kd [4]: 48.7 µM
Activity [5]: inactive
IC50 [6]: 30.8 µM
Structure (SMILES): Oc1cc(O)c2c(c1)O[C@@H](c1ccc(O)c(O)c1)[C@H](O)C2 [(-)-CATECHIN]
